In patent publication US7390806B2, “Antibiotics containing borinic acid complexes and methods of use” (Anacor Pharmaceuticals, Inc., priority 2002, dated 2008):
≈ marks a conversion by molar mass, not a printed value. Where two headings read alike, the source gives them in different places.

Assays:
[1] = tested on: E. faecium CT-26; experiment: MIC determination, E. faecium CT-26; format: cell-based, Enterococcus faecium; details: for MIC: Enterococcus faecium, read-out: MIC E. faecium CT-26
[2] = tested on: H. influenzae ATCC 49766; experiment: MIC determination, H. influenzae ATCC 49766; format: cell-based, Haemophilus influenzae; details: Table 2; for MIC: Haemophilus influenzae, ATCC49766
[3] = tested on: E. faecalis ATCC 29212; experiment: MIC determination, E. faecalis ATCC 29212; format: cell-based, Enterococcus faecalis; details: for MIC: Enterococcus faecalis, read-out: MIC E. faecalis ATCC 29212
[4] = tested on: S. pneumoniae ATCC 6301; experiment: MIC determination, S. pneumoniae ATCC 6301; format: cell-based, Streptococcus pneumoniae; details: for MIC: Streptococcus pneumoniae; for MIC S. pneumoniae ATCC 6301: Table 1; for MIC S. pneumonia ATCC 6301: Table 2
[5] = tested on: M. catarrhalis ATCC 25238; experiment: MIC determination, M. catarrhalis ATCC 25238; format: cell-based; details: for MIC: Moraxella catarrhalis, ATCC25238, Table 1, read-out: MIC M. catarrhalis ATCC 25238; for MIC M. catarrhalis ATCC 25238: Table 1
[6] = tested on: S. aureus ATCC 29213; experiment: MIC determination, S. aureus ATCC 29213; format: cell-based, Staphylococcus aureus; details: for MIC: Staphylococcus aureus, read-out: MIC S. aureus ATCC 29213
[7] = tested on: S. epidermidis ATCC 12228; experiment: MIC determination, S. epidermidis ATCC 12228; format: cell-based, Staphylococcus epidermidis; details: for MIC: Staphylococcus epidermidis, read-out: MIC S. epidermidis ATCC 12228
[8] = tested on: M. tuberculosis H37Rv; experiment: Anti-mycobacterium in vitro activity, H37Rv; format: cell-based, Mycobacterium tuberculosis; details: Sensitive strain; for MIC: Mycobacterium tuberculosis, H37RV
[9] = ATCC6301, Table 1, read-out: MIC S. pneumoniae ATCC 6301
[10] = ATCC6301, Table 2, read-out: MIC S. pneumonia ATCC 6301

CO/N=C(\C(=O)N[C@@H]1C(=O)N2C(C(=O)O)=C(CSc3nc(=O)c(=O)[nH]n3C)CS[C@H]12)c1csc(N)n1 [Ceftriaxone, reference compound]
MIC ([1]; CT26, Table 1): 64 µg/mL (≈ 115 µM) | MIC ([1]; CT26, Table 2): 64 µg/mL (≈ 115 µM) | MIC [2]: 0.12 µg/mL (≈ 0.216 µM) | MIC ([3]; ATCC29212, Table 1): 64 µg/mL (≈ 115 µM) | MIC ([3]; ATCC29212, Table 2): 64 µg/mL (≈ 115 µM) | MIC [4, 9]: 0.125 µg/mL (≈ 0.225 µM) | MIC [4, 10]: < 0.125 µg/mL | MIC [5]: 0.125 µg/mL (≈ 0.225 µM) | MIC ([6]; ATCC29213, Table 1): 2 µg/mL (≈ 3.61 µM) | MIC ([6]; ATCC29213, Table 2): 2 µg/mL (≈ 3.61 µM) | MIC ([7]; ATCC12228, Table 1): 1 µg/mL (≈ 1.8 µM) | MIC ([7]; ATCC12228, Table 2): 1 µg/mL (≈ 1.8 µM)

Cc1onc(-c2ccccc2Cl)c1C(=O)N[C@@H]1C(=O)N2[C@@H]1SC(C)(C)[C@@H]2C(=O)O [Cloxacillin, reference compound]
MIC ([1]; CT26, Table 1): 64 µg/mL (≈ 147 µM) | MIC ([1]; CT26, Table 2): 64 µg/mL (≈ 147 µM) | MIC [2]: 8 µg/mL (≈ 18.4 µM) | MIC ([3]; ATCC29212, Table 1): 16 µg/mL (≈ 36.7 µM) | MIC ([3]; ATCC29212, Table 2): 16 µg/mL (≈ 36.7 µM) | MIC [4, 9]: 0.125 µg/mL (≈ 0.287 µM) | MIC [4, 10]: 0.12 µg/mL (≈ 0.275 µM) | MIC [5]: 1 µg/mL (≈ 2.29 µM) | MIC ([6]; ATCC29213, Table 1): 0.125 µg/mL (≈ 0.287 µM) | MIC ([6]; ATCC29213, Table 2): 0.12 µg/mL (≈ 0.275 µM) | MIC ([7]; ATCC12228, Table 1): 0.25 µg/mL (≈ 0.574 µM) | MIC ([7]; ATCC12228, Table 2): 0.25 µg/mL (≈ 0.574 µM)

[H]/N=C(/N)N[C@H]1[C@H](O)[C@@H](O)[C@H](O[C@@H]2O[C@@H](C)[C@](O)(C=O)[C@H]2O[C@@H]2O[C@@H](CO)[C@H](O)[C@@H](O)[C@@H]2NC)[C@@H](N/C(N)=N\[H])[C@@H]1O [Streptomycin]
MIC [8]: < 2 µg/mL

Oc1cccc2cccnc12 [Compound 75, 8-hydroxyquinoline]
MIC E. faecium CT-26 ([1]; Table 1): 4 micrograms per ml | MIC E. faecalis ATCC 29212 ([3]; Table 1): 64 micrograms per ml | MIC S. pneumoniae ATCC 6301 [4]: 2 micrograms per ml | MIC S. aureus ATCC 29213 ([6]; Table 1): 2 micrograms per ml | M. tuberculosis MIC H37Rv [8]: 0.775 µg/mL | MIC S. epidermidis ATCC 12228 ([7]; Table 1): 1 micrograms per ml

CO[C@H]1/C=C/O[C@@]2(C)Oc3c(C)c(O)c4c(O)c(c(/C=N/N5CCN(C)CC5)c(O)c4c3C2=O)NC(=O)/C(C)=C\C=C\[C@H](C)[C@H](O)[C@@H](C)[C@@H](O)[C@@H](C)[C@H](OC(C)=O)[C@@H]1C [Rifampicin]
MIC [8]: < 0.125 µg/mL

CC1(C)S[C@@H]2[C@H](NC(=O)Cc3ccccc3)C(=O)N2[C@H]1C(=O)O [Pen G, reference compound]
MIC E. faecium CT-26 ([1]; Table 1): 32 micrograms per ml | MIC E. faecium CT-26 ([1]; Table 2): 32 micrograms per ml | MIC H. influenzae ATCC 49766 [2]: 0.12 micrograms per ml | MIC E. faecalis ATCC 29212 ([3]; Table 1): 1 micrograms per ml | MIC E. faecalis ATCC 29212 ([3]; Table 2): 1 micrograms per ml | MIC S. pneumoniae ATCC 6301 [4]: 0.125 micrograms per ml | MIC S. pneumonia ATCC 6301 [4]: <0.125 micrograms per ml | MIC M. catarrhalis ATCC 25238 [5]: 0.125 micrograms per ml | MIC S. aureus ATCC 29213 ([6]; Table 1): 0.5 micrograms per ml | MIC S. aureus ATCC 29213 ([6]; Table 2): 0.5 micrograms per ml | MIC S. epidermidis ATCC 12228 ([7]; Table 1): 16 micrograms per ml | MIC S. epidermidis ATCC 12228 ([7]; Table 2): 16 micrograms per ml

CCc1cc(C(N)=S)ccn1 [Ethionamide]
MIC [8]: 1 µg/mL (≈ 6.02 µM)

N[C@@H]1CON=C1O [cycloserine]
MIC [8]: 8 µg/mL (≈ 78.4 µM)

Nc1ccc(C(=O)O)c(O)c1 [p-aminosalicylate]
M. tuberculosis MIC H37Rv [8]: <0.25 µg/mL

CC[C@@H](CO)NCCN[C@@H](CC)CO [Ethambutol]
MIC [8]: < 1 µg/mL

Oc1cccc2cccnc12 [Compound 50, 8-hydroxyquinoline]
MIC E. faecium CT-26 ([1]; Table 1): 4 micrograms per ml | MIC E. faecalis ATCC 29212 ([3]; Table 1): 4 micrograms per ml | MIC S. pneumoniae ATCC 6301 [4]: 2 micrograms per ml | MIC S. aureus ATCC 29213 ([6]; Table 1): 2 micrograms per ml | M. tuberculosis MIC H37Rv [8]: 0.387 µg/mL | MIC S. epidermidis ATCC 12228 ([7]; Table 1): 2 micrograms per ml

NNC(=O)c1ccncc1 [Isoniazid (INH), Isoniazid]
MIC [8]: < 0.062 µg/mL

CC1COc2c(N3CCN(C)CC3)c(F)cc3c(=O)c(C(=O)O)cn1c23 (stereo not shown) [Ofloxacin]
MIC [8]: 4 µg/mL (≈ 11.1 µM)

NC[C@H]1O[C@H](O[C@H]2[C@H](O)[C@@H](O[C@H]3O[C@H](CO)[C@@H](O)[C@H](N)[C@H]3O)[C@H](N)C[C@@H]2N)[C@H](O)[C@@H](O)[C@@H]1O [Kanamycin]
MIC [8]: < 2 µg/mL

Oc1cccc2cccnc12 [Compound 10, 8-hydroxyquinoline]
MIC E. faecium CT-26 ([1]; Table 1): 4 micrograms per ml | MIC E. faecalis ATCC 29212 ([3]; Table 1): 32 micrograms per ml | MIC S. pneumoniae ATCC 6301 [4]: 2 micrograms per ml | MIC S. aureus ATCC 29213 ([6]; Table 1): 1 micrograms per ml | M. tuberculosis MIC H37Rv [8]: 0.387 µg/mL | MIC S. epidermidis ATCC 12228 ([7]; Table 1): 2 micrograms per ml

Oc1cccc2cccnc12 [Compound 72, 8-hydroxyquinoline]
MIC E. faecium CT-26 ([1]; Table 1): 4 micrograms per ml | MIC E. faecalis ATCC 29212 ([3]; Table 1): 64 micrograms per ml | MIC S. pneumoniae ATCC 6301 [4]: 4 micrograms per ml | MIC S. aureus ATCC 29213 ([6]; Table 1): 4 micrograms per ml | M. tuberculosis MIC H37Rv [8]: 0.775 µg/mL | MIC S. epidermidis ATCC 12228 ([7]; Table 1): 2 micrograms per ml

Oc1cccc2cccnc12 [Compound 65, 8-hydroxyquinoline]
MIC E. faecium CT-26 ([1]; Table 1): 4 micrograms per ml | MIC E. faecalis ATCC 29212 ([3]; Table 1): 16 micrograms per ml | MIC S. pneumoniae ATCC 6301 [4]: 2 micrograms per ml | MIC M. catarrhalis ATCC 25238 [5]: 4 micrograms per ml | MIC S. aureus ATCC 29213 ([6]; Table 1): 2 micrograms per ml | M. tuberculosis MIC H37Rv [8]: 0.775 µg/mL | MIC S. epidermidis ATCC 12228 ([7]; Table 1): 2 micrograms per ml

Oc1cccc2cccnc12 [Compound 55, 8-hydroxyquinoline]
MIC E. faecium CT-26 ([1]; Table 1): 2 micrograms per ml | MIC E. faecalis ATCC 29212 ([3]; Table 1): 4 micrograms per ml | MIC S. pneumoniae ATCC 6301 [4]: 2 micrograms per ml | MIC M. catarrhalis ATCC 25238 [5]: 4 micrograms per ml | MIC S. aureus ATCC 29213 ([6]; Table 1): 2 micrograms per ml | M. tuberculosis MIC H37Rv [8]: 0.775 µg/mL | MIC S. epidermidis ATCC 12228 ([7]; Table 1): 1 micrograms per ml

Oc1cccc2cccnc12 [Compound 51, 8-hydroxyquinoline]
MIC E. faecium CT-26 ([1]; Table 1): 2 micrograms per ml | MIC E. faecalis ATCC 29212 ([3]; Table 1): 8 micrograms per ml | MIC S. aureus ATCC 29213 ([6]; Table 1): 2 micrograms per ml | M. tuberculosis MIC H37Rv [8]: 0.387 µg/mL | MIC S. epidermidis ATCC 12228 ([7]; Table 1): 1 micrograms per ml

CC1(C)O[B-](c2ccc(Cl)cc2)(c2ccc(Cl)cc2)[n+]2cccc(O)c21 [Compound 103]
MIC E. faecium CT-26 ([1]; Table 2): 1 micrograms per ml | MIC H. influenzae ATCC 49766 [2]: 64 micrograms per ml | MIC E. faecalis ATCC 29212 ([3]; Table 2): 4 micrograms per ml | MIC S. pneumonia ATCC 6301 [4]: 0.5 micrograms per ml | MIC S. aureus ATCC 29213 ([6]; Table 2): 0.25 micrograms per ml | MIC S. epidermidis ATCC 12228 ([7]; Table 2): 0.5 micrograms per ml

CC1(C)O[B-](c2cccc(Cl)c2)(c2cccc(Cl)c2)[n+]2cccc(O)c21 [Compound 102]
MIC E. faecium CT-26 ([1]; Table 2): 2 micrograms per ml | MIC H. influenzae ATCC 49766 [2]: 64 micrograms per ml | MIC E. faecalis ATCC 29212 ([3]; Table 2): 64 micrograms per ml | MIC S. pneumonia ATCC 6301 [4]: 0.25 micrograms per ml | MIC S. aureus ATCC 29213 ([6]; Table 2): 0.5 micrograms per ml | MIC S. epidermidis ATCC 12228 ([7]; Table 2): 1 micrograms per ml

C[C@@H](O)[C@H]1C(=O)N2C(C(=O)O)=C(SCCN=CN)C[C@H]12 [Imipenem, reference compound]
MIC ([1]; CT26, Table 1): 64 µg/mL (≈ 214 µM) | MIC ([1]; CT26, Table 2): 64 µg/mL (≈ 214 µM) | MIC [2]: 2 µg/mL (≈ 6.68 µM) | MIC ([3]; ATCC29212, Table 1): 1 µg/mL (≈ 3.34 µM) | MIC ([3]; ATCC29212, Table 2): 1 µg/mL (≈ 3.34 µM) | MIC [4, 9]: 0.125 µg/mL (≈ 0.418 µM) | MIC [4, 10]: < 0.125 µg/mL | MIC [5]: 0.125 µg/mL (≈ 0.418 µM) | MIC ([6]; ATCC29213, Table 1): 0.125 µg/mL (≈ 0.418 µM) | MIC ([6]; ATCC29213, Table 2): 0.12 µg/mL (≈ 0.401 µM) | MIC ([7]; ATCC12228, Table 1): 0.125 µg/mL (≈ 0.418 µM) | MIC ([7]; ATCC12228, Table 2): 0.12 µg/mL (≈ 0.401 µM)
